Laboratory results published in patent US11234914B2, “Monosubstituted urea derivatives as a self-tanning substance” (MERCK PATENT GMBH, priority 2016, dated 2022).

Columns and labels:
[1] = test system: Normal Human Epidermal Keratinocytes (NHEK) and Normal Human Epidermal Melanocytes, lightly pigmented (NHEM-LP) co-culture; test: Synthesis of melanin in NHEK/NHEM-LP co-culture; type: cell-based; conditions: 240 hours (10 days) incubation, NHEK:NHEM-LP 2:1, OD 405 nm
Protocol: Evaluation of the Synthesis of Melanin in a Cell Culture Model Containing Two Cell Types (Co-Culture), Firstly Normal Human Epidermal KeratinoCytes (NHEK) and Secondly Normal Human Epidermal Melanocytes, Lightly Pigmented (NHEM-LP)
The two cell types NHEK and NHEM-LP (NHEK:NHEM-LP) are employed in a ratio of 2:1.
The culture medium consists of the media keratinocyte-SFM (2 parts by volume) and medium M254 (1 part by volume).
Keratinocyte-SFM contains 0.25 ng/ml of epidermal growth factor (EGF), 25 μg/ml of pituitary extract (PE) and 25 μg/ml of gentamycin and was purchased from Thermo Fisher Scientific.
M254 contains PMA-free HMGS-2, 5 μg/ml of insulin, 50 U/ml of penicillin, 50 μg/ml of streptomycin and 25 μg/ml of gentamycin and was purchased from Thermo Fisher Scientific.
NHEK and NHEM-LP were incubated in the culture medium in microtitre plates (24-well plates) for 24 hours (37° C., 5% CO2). The culture medium was removed and replaced by an assay medium which contained the culture medium and compounds Ia, Ib and Ic to be tested or alternatively no test substance, the reference L-tyrosine (1 mM), 200 μM of IBMX or the solvent control 0.1% of THF, 0.15% of THF. Compounds Ia, Ib and Ic are added as solution (0.15% in THF). After replacement of the assay medium, the cells were incubated again for 240 hours (10 days). On days 3 and 7, assay medium was again added. All experimental investigations were carried out using a triple determination. After the end of the incubation, the melanin was extracted by cell lysis with 0.5 N NaOH. The optical density (OD) of each sample was measured at 405 nm. The melanin quantity was calculated from melanin standards (standard curve 0.39 to 100 μg/ml of melanin).

[2] = test system: 3D melanized reconstructed human epidermis (RHEs-MEL); test: Tanning properties in vitro on reconstructed epidermis; type: cell-based; conditions: compound at 25 μM and 12.5 M
Protocol: Evaluation of the Tanning Properties In Vitro on Reconstructed Epidermis
In this study, the tanning properties of compound Ic are investigated in vitro on 3D melanized reconstructed human epidermis (RHEs-MEL). The compound IBMX (3-isobutyl-1-methylxanthine) 100 μM is employed as positive control. Compound Ic is employed 25 μM and […]. Untreated reconstructed skin is used as negative control. The in vitro skin is treated systemically with the compounds to be investigated in a culture medium for 10 days and then analysed.

Row | Structure (SMILES) | stimulation of melanin synthesis ([1]; tested at 45 μM) [%] | stimulation of melanin synthesis ([1]; tested at 20 μM) [%] | stimulation of melanin synthesis ([1]; tested at 30 μM) [%] | ITA value (individual typology angle) ([2]; 10 days, both concentrations) | amount of melanin ([2]; 10 days, both concentrations) | tanning properties compared with positive control IBMX 100 μM ([2]; systemic treatment in culture medium for 10 days, evident for both concentrations)
1 | NC(=O)NCc1ccccc1 [Compound Ia, Benzylurea] | 17 | – | – | – | – | –
2 | COc1ccc(CNC(N)=O)cc1 [Compound Ib, (4-methoxybenzyl)urea] | 18 | – | – | – | – | –
3 | NC(=O)NCc1ccc2c(c1)OCO2 [Compound Ic, benzo[1,3]dioxol-5ylmethylurea] | – | 23 | 44 | reduction | increased | comparably good properties as IBMX at 100 μM
